Measurements: the OligoGym collection
HELM strings list units from the 5' end as sugar, base in round brackets, then linkage (d deoxyribose, r ribose, m 2'-O-methyl, p phosphodiester). Strings are as the collection lists them, not checked against the first reports. ss, as = sense and antisense strand; [fl2r] = 2'-fluoro

Conditions: siRNA
Also: test system not given here.

RNA1{r(U)p.m(U)p.r(A)p.r(A)p.r(G)p.r(G)p.r(A)p.r(G)p.r(A)p.r(A)p.r(G)p.r(C)p.r(U)p.r(G)p.r(A)p.r(C)p.r(G)p.r(G)p.r(C)p.r(T)p.r(T)}|RNA2{r(G)p.r(C)p.r(C)p.r(G)p.r(U)p.r(C)p.r(A)p.r(G)p.r(C)p.r(U)p.r(U)p.r(C)p.r(U)p.r(C)p.r(C)p.r(U)p.m(U)p.r(A)p.r(A)p.r(T)p.r(T)}$$$RNA1{StrandType:ss}|RNA2{StrandType:as}$
target mRNA knockdown: 69%

RNA1{r(U)p.m(U)p.r(A)p.r(C)p.r(A)p.r(A)p.r(A)p.r(G)p.r(G)p.r(A)p.r(U)p.r(C)p.r(U)p.r(C)p.r(C)p.r(U)p.r(C)p.r(C)p.r(C)p.r(T)p.r(T)}|RNA2{r(G)p.r(G)p.r(G)p.r(A)p.r(G)p.r(G)p.r(A)p.r(G)p.r(A)p.r(U)p.r(C)p.r(C)p.r(U)p.r(U)p.r(U)p.r(G)p.m(U)p.r(A)p.r(A)p.r(T)p.r(T)}$$$RNA1{StrandType:ss}|RNA2{StrandType:as}$
target mRNA knockdown: 69%

RNA1{r(U)p.m(U)p.r(G)p.r(G)p.r(G)p.r(G)p.r(A)p.r(A)p.r(G)p.r(C)p.r(G)p.r(G)p.r(C)p.r(C)p.r(G)p.r(G)p.r(C)p.r(G)p.r(G)p.r(T)p.r(T)}|RNA2{r(C)p.r(C)p.r(G)p.r(C)p.r(C)p.r(G)p.r(G)p.r(C)p.r(C)p.r(G)p.r(C)p.r(U)p.r(U)p.r(C)p.r(C)p.r(C)p.m(C)p.r(A)p.r(A)p.r(T)p.r(T)}$$$RNA1{StrandType:ss}|RNA2{StrandType:as}$
target mRNA knockdown: 82%

RNA1{r(U)p.r(A)p.r(A)p.r(G)p.r(A)p.r(U)p.r(G)p.r(U)p.r(U)p.r(C)p.r(A)p.r(U)p.r(C)p.r(G)p.r(A)p.r(G)p.r(U)p.r(C)p.r(C)p.d(T)p.d(T)}|RNA2{r(G)p.r(G)p.r(A)p.r(C)p.r(U)p.r(C)p.r(G)p.r(A)p.r(U)p.r(G)p.r(A)p.r(A)p.r(C)p.r(A)p.r(U)p.r(C)p.r(U)p.r(U)p.r(A)p.d(T)p.d(T)}$$$RNA1{StrandType:ss}|RNA2{StrandType:as}$
target mRNA knockdown: 0%

RNA1{r(U)p.r(A)p.r(C)p.r(C)p.r(G)p.r(A)p.r(G)p.r(A)p.r(A)p.r(U)p.r(G)p.m(A)p.r(G)p.m(C)p.r(C)p.m(U)p.r(G)p.m(A)p.r(U)p.r(T)p.r(T)}|RNA2{m(A)p.r(U)p.m(C)p.r(A)p.m(G)p.r(G)p.m(C)p.r(U)p.m(C)p.r(A)p.m(U)p.r(U)p.m(C)p.r(U)p.m(C)p.r(G)p.m(G)p.r(U)p.m(A)p.r(T)p.r(T)}$$$RNA1{StrandType:ss}|RNA2{StrandType:as}$
target mRNA knockdown: 23%

RNA1{r(U)p.r(C)p.[fl2r](C)p.r(A)p.r(A)p.r(G)p.r(C)p.r(U)p.r(U)p.r(C)p.r(C)p.r(U)p.r(C)p.r(G)p.r(U)p.[fl2r](U)p.[fl2r](G)p.r(G)p.r(U)p.r(T)p.r(T)}|RNA2{r(A)p.r(C)p.[fl2r](C)p.[fl2r](A)p.r(A)p.r(C)p.r(G)p.r(A)p.r(G)p.r(G)p.r(A)p.r(A)p.r(G)p.r(C)p.r(U)p.[fl2r](U)p.r(G)p.r(G)p.r(A)p.r(T)p.r(T)}$$$RNA1{StrandType:ss}|RNA2{StrandType:as}$
target mRNA knockdown: 65%

RNA1{r(U)p.r(C)p.m(U)p.r(A)p.m(C)p.r(A)p.r(C)p.r(C)p.r(G)p.m(C)p.r(G)p.r(C)p.m(C)p.r(C)p.r(C)p.r(C)p.r(C)p.r(U)p.r(C)p.r(T)p.r(T)}|RNA2{r(G)p.r(A)p.r(G)p.r(G)p.r(G)p.r(G)p.r(G)p.r(G)p.r(C)p.r(G)p.r(C)p.r(G)p.r(G)p.m(U)p.r(G)p.m(U)p.r(A)p.r(G)p.r(A)p.r(T)p.r(T)}$$$RNA1{StrandType:ss}|RNA2{StrandType:as}$
target mRNA knockdown: 73%

RNA1{r(U)p.r(C)p.m(U)p.r(A)p.r(C)p.r(A)p.r(C)p.r(C)p.r(G)p.r(C)p.r(G)p.r(C)p.r(C)p.r(C)p.r(C)p.r(C)p.r(C)p.r(U)p.r(C)p.r(T)p.r(T)}|RNA2{r(G)p.r(A)p.r(G)p.r(G)p.r(G)p.r(G)p.r(G)p.r(G)p.r(C)p.r(G)p.r(C)p.r(G)p.r(G)p.r(U)p.r(G)p.m(U)p.r(A)p.r(G)p.r(A)p.r(T)p.r(T)}$$$RNA1{StrandType:ss}|RNA2{StrandType:as}$
target mRNA knockdown: 79%

RNA1{r(U)p.r(C)p.r(C)p.m(U)p.r(A)p.r(G)p.r(C)p.m(U)p.r(G)p.r(U)p.r(C)p.r(U)p.m(U)p.r(G)p.r(U)p.r(C)p.r(C)p.r(C)p.r(U)p.r(T)p.r(T)}|RNA2{r(A)p.r(G)p.r(G)p.r(G)p.r(A)p.m(C)p.r(A)p.r(A)p.r(G)p.r(A)p.m(C)p.r(A)p.r(G)p.r(C)p.m(U)p.r(A)p.r(G)p.r(G)p.r(A)p.r(T)p.r(T)}$$$RNA1{StrandType:ss}|RNA2{StrandType:as}$
target mRNA knockdown: 68%

RNA1{r(U)p.r(C)p.r(C)p.m(U)p.r(A)p.r(G)p.r(C)p.r(U)p.r(G)p.r(U)p.r(C)p.r(U)p.r(U)p.r(G)p.r(U)p.r(C)p.r(C)p.r(C)p.r(U)p.r(T)p.r(T)}|RNA2{r(A)p.r(G)p.r(G)p.r(G)p.r(A)p.r(C)p.r(A)p.r(A)p.r(G)p.r(A)p.r(C)p.r(A)p.r(G)p.r(C)p.m(U)p.r(A)p.r(G)p.r(G)p.r(A)p.r(T)p.r(T)}$$$RNA1{StrandType:ss}|RNA2{StrandType:as}$
target mRNA knockdown: 71%

RNA1{r(U)p.r(C)p.r(C)p.r(A)p.r(A)p.r(G)p.r(C)p.r(U)p.r(U)p.r(C)p.r(C)p.r(U)p.r(C)p.r(G)p.r(U)p.r(U)p.r(G)p.r(G)p.r(U)p.r(T)p.r(T)}|RNA2{r(A)p.r(C)p.[fl2r](C)p.r(A)p.r(A)p.r(C)p.r(G)p.r(A)p.r(G)p.r(G)p.r(A)p.r(A)p.r(G)p.r(C)p.r(U)p.[fl2r](U)p.r(G)p.r(G)p.r(A)p.r(T)p.r(T)}$$$RNA1{StrandType:ss}|RNA2{StrandType:as}$
target mRNA knockdown: 71%

RNA1{r(U)p.r(C)p.r(C)p.r(C)p.r(U)p.r(U)p.r(C)p.m(C)p.r(A)p.r(C)p.r(C)p.r(G)p.r(C)p.m(C)p.r(A)p.m(U)p.r(A)p.r(U)p.r(U)p.r(T)p.r(T)}|RNA2{r(A)p.r(A)p.m(U)p.r(A)p.m(U)p.r(G)p.r(G)p.r(C)p.r(G)p.r(G)p.m(U)p.r(G)p.r(G)p.r(A)p.r(A)p.r(G)p.r(G)p.r(G)p.r(A)p.r(T)p.r(T)}$$$RNA1{StrandType:ss}|RNA2{StrandType:as}$
target mRNA knockdown: 47%

RNA1{r(U)p.r(C)p.r(C)p.r(C)p.r(U)p.r(U)p.r(C)p.r(C)p.r(A)p.r(C)p.r(C)p.r(G)p.r(C)p.r(C)p.r(A)p.m(U)p.r(A)p.r(U)p.r(U)p.r(T)p.r(T)}|RNA2{r(A)p.r(A)p.m(U)p.r(A)p.r(U)p.r(G)p.r(G)p.r(C)p.r(G)p.r(G)p.r(U)p.r(G)p.r(G)p.r(A)p.r(A)p.r(G)p.r(G)p.r(G)p.r(A)p.r(T)p.r(T)}$$$RNA1{StrandType:ss}|RNA2{StrandType:as}$
target mRNA knockdown: 49%

RNA1{r(U)p.r(C)p.r(C)p.r(G)p.r(G)p.r(C)p.[fl2r](U)p.r(A)p.r(A)p.r(C)p.r(U)p.r(C)p.[fl2r](U)p.r(G)p.r(A)p.r(G)p.r(G)p.r(A)p.r(C)p.r(T)p.r(T)}|RNA2{r(G)p.r(U)p.r(C)p.r(C)p.r(U)p.[fl2r](C)p.r(A)p.r(G)p.r(A)p.r(G)p.r(U)p.r(U)p.r(A)p.r(G)p.r(C)p.r(C)p.[fl2r](G)p.r(G)p.r(A)p.r(T)p.r(T)}$$$RNA1{StrandType:ss}|RNA2{StrandType:as}$
target mRNA knockdown: 85%

RNA1{r(U)p.r(C)p.r(C)p.r(G)p.r(G)p.r(C)p.[fl2r](U)p.r(A)p.r(A)p.r(C)p.r(U)p.r(C)p.r(U)p.r(G)p.r(A)p.r(G)p.r(G)p.r(A)p.r(C)p.r(T)p.r(T)}|RNA2{r(G)p.r(U)p.r(C)p.r(C)p.r(U)p.r(C)p.r(A)p.r(G)p.r(A)p.r(G)p.r(U)p.[fl2r](U)p.r(A)p.r(G)p.r(C)p.r(C)p.r(G)p.r(G)p.r(A)p.r(T)p.r(T)}$$$RNA1{StrandType:ss}|RNA2{StrandType:as}$
target mRNA knockdown: 82%
